What was measured:
[1] = system: elderly subjects with TRD; settings: human, in vivo, other: intranasal
Text: The Modified Observer's Assessment of Alertness/Sedation (MOAA/S) was used to measure treatment-emergent sedation with correlation to levels of sedation defined by the American Society of Anesthesiologists (ASA) continuum. The MOAA/S scores range from 0 (No response to painful stimulus; corresponds to ASA continuum for general anesthesia) to 5 (Readily responds to name spoken in normal tone [awake]; corresponds to ASA continuum for minimal sedation). The proportion of subjects with sedation was <4% for the esketamine group for each dosing day.

[2] = system: patients with treatment-resistant depression (TRD); test: Vital signs (blood pressure, heart rate), phase 2 dose-response study in TRD; assay type: in vivo, human
patients = test: Adverse reactions across clinical studies as described in product labeling; assay type: in vivo, human
Text: In the product labeling, patients will be informed that dissociative/perceptual changes (including distortion of time and space and illusions), derealization and depersonalization are common psychological effects of esketamine. Patients will be further advised that • These adverse reactions were reported as transient and self-limited and occurred on the day of dosing. • Dissociation was reported as severe in intensity at the incidence of less than 4% across studies, • Dissociation symptoms typically resolved by 1.5 hours after dosing and the severity tended to reduce over time with repeated treatments. • Dissociative and perception disturbances may decrease after a few treatment sessions.
The product label will include a brief description of the adverse reactions of sedation and somnolence reported in clinical studies with esketamine: • Events of sedation and somnolence were primarily mild or moderate in severity, occurred on the day of dosing and resolved spontaneously the same day. • The sedative effects typically resolved by 1.5 hours after dosing. • Rates of somnolence were relatively stable over time during long-term treatment. • In the cases of sedation, no symptoms of respiratory distress were observed, and hemodynamic parameters (including vital signs and oxygen saturation) remained within normal ranges.

adult subjects with TRD = settings: human, in vivo, other: intranasal
Procedure: The CADSS is an instrument for the measurement of present-state dissociative symptoms, and was administered to assess treatment-emergent dissociative symptoms. The CADSS consists of 23 subjective items, divided into 3 components: Depersonalization (Items 3 to 7, 20, and 23), derealization (Items 1, 2, 8 to 13, 16 to 19, and 21) and amnesia (Items 14, 15, and 22). Participant's responses were coded on a 5-point scale (0=not at all through to 4=extremely).
The Clinician Administered Dissociative States Scale (CADSS) was measured prior to the start of each dose, at 40 minutes, and 1.5 hours postdose.

[3] = system: subjects with MDD at imminent risk for suicide; settings: 84 mg; double-blind phase; N = 35
Text: Among 68 randomized subjects, 66 were included in the safety analysis set (defined as receiving at least one dose of study medication in the double-blind phase). […] All safety subjects (N=66) were included in the intent-to-treat (ITT) analysis set (defined as receiving at least one dose of study medication during the double-blind phase and having both the baseline and the Day 1, 4-hour postdose evaluation for the MADRS total score). Forty-nine subjects were included in the safety (FU) analysis set (defined as all subjects who have at least 1 visit during the follow up phase).

With `CN[C@]1(c2ccccc2Cl)CCCCC1=O` [esketamine, (S)-2-(2-chlorophenyl)-2-(methylamino)cyclohexanone] the “Proportion of subjects with sedation (post dose MOAA/S score ≤3)” value [1] was less than 4%, the “Diastolic blood pressure: maximum mean change on dosing days” value [2] was 10.3 mmHg and the “Elevated blood pressure returned to the normal range by (post-dose)” value [2] was no more than 2 h. For the same compound, the “Heart rate: maximum mean change on dosing days” value [2] was 9.4 bpm, the “Systolic blood pressure: maximum mean change on dosing days” value [2] was 19.0 mmHg and the “Maximum diastolic blood pressure value” ([2]; 10 or 40 minutes post-dose) was 115 mmHg. The “Maximum systolic blood pressure value” ([2]; 10 or 40 minutes post-dose) was 199 mmHg, the “Dissociation symptoms typically resolved by (after dosing)” value (patients; across studies) was no more than 1.5 h and the “Incidence of dissociation reported as severe in intensity” value (patients; across studies) was “less than 4%”. For the same compound, the “Sedative effects typically resolved by (after dosing)” value (patients; clinical studies) was no more than 1.5 h, the “CADSS dissociative and perceptual change symptoms resolved by (postdose)” value (adult subjects with TRD) was no more than 1.5 h and the “Serious TEAE: Agitation, subjects (%)” value [3] was 2.9%. For the same compound, the “Serious TEAE: Depressive symptom, subjects (%)” value [3] was 2.9%, the “Serious TEAE: Psychiatric disorders, subjects (%)” value [3] was 11.4% and the “Serious TEAE: Suicidal ideation, subjects (%)” value [3] was 5.7%. The “Subjects with 1 or more serious TEAE (%)” value [3] was 11.4%, the “Subjects with TEAE leading to drug withdrawn (%)” value [3] was 14.3% and the “TEAE Acne, subjects (%)” value [3] was “(5.7%)”. The “TEAE Agitation, subjects (%)” value [3] was “(8.6%)”, the “TEAE Anxiety, subjects (%)” value [3] was “(17.1%)” and the “TEAE Blood pressure increased, subjects (%)” value [3] was “(5.7%)”. For the same compound, the “TEAE Diarrhea, subjects (%)” value [3] was “(8.6%)”, the “TEAE Diplopia, subjects (%)” value [3] was “(5.7%)” and the “TEAE Dissociation, subjects (%)” value [3] was “(31.4%)”. For the same compound, the “TEAE Dizziness postural, subjects (%)” value [3] was “(5.7%)”, the “TEAE Dizziness, subjects (%)” value [3] was “(34.3%)” and the “TEAE Dry mouth, subjects (%)” value [3] was “(8.6%)”. For the same compound, the “TEAE Dysgeusia, subjects (%)” value [3] was “(31.4%)”, the “TEAE Ear and labyrinth disorders, subjects (%)” value [3] was “(25.7%)” and the “TEAE Euphoric mood, subjects (%)” value [3] was “(11.4%)”. For the same compound, the “TEAE Eye disorders, subjects (%)” value [3] was “(20.0%)”, the “TEAE Fatigue, subjects (%)” value [3] was “(5.7%)” and the “TEAE Feeling abnormal, subjects (%)” value [3] was “(8.6%)”. For the same compound, the “TEAE Feeling cold, subjects (%)” value [3] was “(5.7%)”, the “TEAE Flatulence, subjects (%)” value [3] was “(2.9%)” and the “TEAE Gastrointestinal disorders, subjects (%)” value [3] was “(54.3%)”. For the same compound, the “TEAE General disorders and administration site conditions, subjects (%)” value [3] was “(28.6%)”, the “TEAE Headache, subjects (%)” value [3] was “(31.4%)” and the “TEAE Hyperacusis, subjects (%)” value [3] was “(5.7%)”. For the same compound, the “TEAE Hyperhidrosis, subjects (%)” value [3] was “(5.7%)”, the “TEAE Hypoesthesia oral, subjects (%)” value [3] was “(5.7%)” and the “TEAE Hypoesthesia, subjects (%)” value [3] was “(8.6%)”. For the same compound, the “TEAE Infections and infestations, subjects (%)” value [3] was “(2.9%)”, the “TEAE Insomnia, subjects (%)” value [3] was “(8.6%)” and the “TEAE Investigations, subjects (%)” value [3] was “(14.3%)”. For the same compound, the “TEAE Nasal congestion, subjects (%)” value [3] was “(2.9%)”, the “TEAE Nasal discomfort, subjects (%)” value [3] was “(8.6%)” and the “TEAE Nausea, subjects (%)” value [3] was “(37.1%)”. For the same compound, the “TEAE Nervous system disorders, subjects (%)” value [3] was “(71.4%)”, the “TEAE Oropharyngeal pain, subjects (%)” value [3] was “(5.7%)” and the “TEAE Paresthesia oral, subjects (%)” value [3] was “(5.7%)”. For the same compound, the “TEAE Paresthesia, subjects (%)” value [3] was “(17.1%)”, the “TEAE Pharyngeal hypoesthesia, subjects (%)” value [3] was “(5.7%)” and the “TEAE Psychiatric disorders, subjects (%)” value [3] was “(57.1%)”. For the same compound, the “TEAE Rash, subjects (%)” value [3] was “(2.9%)”, the “TEAE Renal and urinary disorders, subjects (%)” value [3] was “(2.9%)” and the “TEAE Respiratory, thoracic and mediastinal disorders, subjects (%)” value [3] was “(25.7%)”. The “TEAE Sedation, subjects (%)” value [3] was “(17.1%)”, the “TEAE Skin and subcutaneous tissue disorders, subjects (%)” value [3] was “(14.3%)” and the “TEAE Somnolence, subjects (%)” value [3] was “(11.4%)”. For the same compound, the “TEAE Suicidal ideation, subjects (%)” value [3] was “(5.7%)”, the “TEAE Throat irritation, subjects (%)” value [3] was “(8.6%)” and the “TEAE Tinnitus, subjects (%)” value [3] was “(5.7%)”. For the same compound, the “TEAE Vertigo, subjects (%)” value [3] was “(11.4%)”, the “TEAE Vision blurred, subjects (%)” value [3] was “(8.6%)” and the “TEAE Vomiting, subjects (%)” value [3] was “(20.0%)”. For the same compound, the “TEAE Weight increased, subjects (%)” value [3] was “(5.7%)”, the “TEAE leading to study discontinuation: Aggression, subjects (%)” value [3] was 2.9% and the “TEAE leading to study discontinuation: Agitation, subjects (%)” value [3] was 2.9%.
